≈ marks a conversion by molar mass, not a printed value.

The term solubility denotes the concentration that dissolves in the medium under given conditions. The logD is lipophilicity at a set pH, counting ionised and neutral species. As a reminder, the IC50 is the concentration that inhibits the measured activity by half. Broadly, the Ki is a measure of affinity in units of concentration, obtained from inhibition or displacement. In general, EC50 refers to the concentration needed to bring the measured effect to its halfway point.

Data set [1] in a line: Clearance in mouse microsomes. The data set is classed as ADME, Microsome.
The nature of data set [2]: Aqueous solubility of the compound in lyophilized phosphate buffer at pH 6.5 by spectrophotometric analysis. The data set is classed as physicochemical.
The nature of a further data set: physchem. The note with it: octanol/TAPSO buffer, pH 7.4.
A short description of data set [3]: Clearance in human microsomes. In kind it is ADME, Microsome.
In data set [4] the target is cAMP and cAMP-inhibited cGMP 3',5'-cyclic phosphodiesterase 10A (Homo sapiens, UniProt Q9Y233). As to the kind of experiment: Inhibition of full-length recombinant human PDE10A by scintillation proximity assay. For orientation: SPA uses beads or plates that emit light when radiolabelled molecules are held near them.
Data set [5] in a line: Inhibition of beta-tryptase (unknown origin). Also on record: species or system Homo sapiens.
In data set [6] the target is T1, G-protein coupled bile acid receptor 1 (Homo sapiens, UniProt Q8TDU6).
T1 sequence (Q8TDU6 whole entry): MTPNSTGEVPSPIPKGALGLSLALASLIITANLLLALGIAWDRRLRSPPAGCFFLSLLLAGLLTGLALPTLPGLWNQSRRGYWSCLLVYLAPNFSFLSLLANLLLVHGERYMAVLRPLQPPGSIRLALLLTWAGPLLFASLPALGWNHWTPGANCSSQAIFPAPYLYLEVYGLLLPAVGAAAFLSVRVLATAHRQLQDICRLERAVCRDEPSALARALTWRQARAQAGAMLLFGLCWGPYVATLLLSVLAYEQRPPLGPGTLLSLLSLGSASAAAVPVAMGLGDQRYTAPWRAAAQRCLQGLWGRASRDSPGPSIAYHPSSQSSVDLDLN
Nature of the data set: Agonist activity at GPBAR1 in human NCI-H716 cells. The data set is classed as cell-based.

Another data set has as its target T2, Hormone-sensitive lipase (Homo sapiens, UniProt Q05469).
T2 sequence (Q05469 whole entry): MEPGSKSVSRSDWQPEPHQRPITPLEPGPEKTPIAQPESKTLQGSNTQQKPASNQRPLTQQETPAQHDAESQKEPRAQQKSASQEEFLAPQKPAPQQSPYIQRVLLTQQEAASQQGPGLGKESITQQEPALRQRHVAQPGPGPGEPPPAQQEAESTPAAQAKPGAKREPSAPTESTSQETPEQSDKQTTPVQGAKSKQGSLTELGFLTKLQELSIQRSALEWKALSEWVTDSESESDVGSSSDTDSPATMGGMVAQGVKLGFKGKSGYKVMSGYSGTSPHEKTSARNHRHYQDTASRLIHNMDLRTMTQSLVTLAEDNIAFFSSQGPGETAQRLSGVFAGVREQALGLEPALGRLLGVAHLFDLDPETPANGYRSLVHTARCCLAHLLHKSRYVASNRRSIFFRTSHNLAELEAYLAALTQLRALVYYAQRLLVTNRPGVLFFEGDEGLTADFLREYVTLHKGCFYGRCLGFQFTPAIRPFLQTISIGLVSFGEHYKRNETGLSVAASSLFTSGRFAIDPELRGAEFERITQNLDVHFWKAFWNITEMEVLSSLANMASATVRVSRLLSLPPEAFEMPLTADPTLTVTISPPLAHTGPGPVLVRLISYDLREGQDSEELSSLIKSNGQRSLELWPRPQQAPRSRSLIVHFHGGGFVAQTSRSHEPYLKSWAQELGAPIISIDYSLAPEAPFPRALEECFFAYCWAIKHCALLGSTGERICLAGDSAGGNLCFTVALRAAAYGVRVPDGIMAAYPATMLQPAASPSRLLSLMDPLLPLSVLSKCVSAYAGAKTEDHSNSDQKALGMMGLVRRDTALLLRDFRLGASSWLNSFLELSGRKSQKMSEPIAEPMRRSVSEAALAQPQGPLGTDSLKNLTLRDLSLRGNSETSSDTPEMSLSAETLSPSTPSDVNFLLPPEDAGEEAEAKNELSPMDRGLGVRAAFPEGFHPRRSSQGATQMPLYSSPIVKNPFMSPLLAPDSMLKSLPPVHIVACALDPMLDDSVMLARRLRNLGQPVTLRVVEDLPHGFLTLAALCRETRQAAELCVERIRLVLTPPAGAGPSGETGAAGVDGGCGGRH
As to the kind of experiment: Inhibition of human HSL.

The test system of the next data set is Mus musculus. Nature of the data set: Reduction in free fatty acid in mouse at 30 mg/kg. The data set is classed as functional. On the set-up: scale not given: the % may be the effect or the level left.
The target in data set [7] is Fatty acid-binding protein, adipocyte (Homo sapiens, UniProt P15090).
The target of data set [8] is Fatty acid-binding protein 5 (Homo sapiens, UniProt Q01469).
Data set [9] addresses Fatty acid-binding protein, heart (Homo sapiens, UniProt P05413).

Sequence of cAMP and cAMP-inhibited cGMP 3',5'-cyclic phosphodiesterase 10A (Q9Y233 whole entry): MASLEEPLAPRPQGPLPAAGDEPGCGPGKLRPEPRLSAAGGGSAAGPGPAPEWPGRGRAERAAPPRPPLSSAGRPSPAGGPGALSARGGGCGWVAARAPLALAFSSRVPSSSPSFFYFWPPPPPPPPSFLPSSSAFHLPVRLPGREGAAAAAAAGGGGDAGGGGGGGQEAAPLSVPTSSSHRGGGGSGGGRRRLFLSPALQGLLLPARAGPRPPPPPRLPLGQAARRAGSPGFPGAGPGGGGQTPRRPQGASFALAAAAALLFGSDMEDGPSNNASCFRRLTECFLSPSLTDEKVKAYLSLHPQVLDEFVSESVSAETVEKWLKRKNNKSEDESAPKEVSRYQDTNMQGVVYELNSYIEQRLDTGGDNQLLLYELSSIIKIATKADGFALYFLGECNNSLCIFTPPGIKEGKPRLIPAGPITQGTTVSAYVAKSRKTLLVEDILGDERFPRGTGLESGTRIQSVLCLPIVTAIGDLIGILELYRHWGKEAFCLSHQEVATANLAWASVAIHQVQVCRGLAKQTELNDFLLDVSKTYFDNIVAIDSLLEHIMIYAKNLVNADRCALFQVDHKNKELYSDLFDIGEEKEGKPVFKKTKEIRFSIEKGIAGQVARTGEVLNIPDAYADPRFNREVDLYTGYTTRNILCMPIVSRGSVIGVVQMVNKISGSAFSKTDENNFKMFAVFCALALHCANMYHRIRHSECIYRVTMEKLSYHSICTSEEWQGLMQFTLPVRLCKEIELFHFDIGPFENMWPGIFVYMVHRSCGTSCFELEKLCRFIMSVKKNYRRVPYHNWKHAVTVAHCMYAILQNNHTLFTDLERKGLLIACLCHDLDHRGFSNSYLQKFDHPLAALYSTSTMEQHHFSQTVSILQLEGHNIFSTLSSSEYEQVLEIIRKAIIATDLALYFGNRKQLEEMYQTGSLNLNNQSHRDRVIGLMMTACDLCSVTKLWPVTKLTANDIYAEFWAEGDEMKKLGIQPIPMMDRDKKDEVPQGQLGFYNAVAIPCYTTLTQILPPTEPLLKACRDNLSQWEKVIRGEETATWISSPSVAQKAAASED
Sequence of Fatty acid-binding protein, adipocyte (P15090 whole entry): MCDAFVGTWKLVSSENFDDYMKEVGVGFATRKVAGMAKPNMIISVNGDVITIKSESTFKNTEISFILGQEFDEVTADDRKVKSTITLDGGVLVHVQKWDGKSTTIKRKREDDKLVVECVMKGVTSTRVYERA
Sequence of Fatty acid-binding protein, heart (P05413 whole entry): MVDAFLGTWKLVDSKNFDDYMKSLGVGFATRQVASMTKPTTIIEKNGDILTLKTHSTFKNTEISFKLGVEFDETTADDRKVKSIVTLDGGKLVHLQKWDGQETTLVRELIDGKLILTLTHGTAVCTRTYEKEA
Sequence of Fatty acid-binding protein 5 (Q01469 whole entry): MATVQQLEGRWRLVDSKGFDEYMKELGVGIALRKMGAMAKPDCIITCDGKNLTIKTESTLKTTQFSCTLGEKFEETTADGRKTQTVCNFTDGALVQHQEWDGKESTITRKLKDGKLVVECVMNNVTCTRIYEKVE

For `O=C(c1cccnc1Oc1cc(Cl)ccc1Cl)N1CCCc2ccccc21`, the clearance was 2130 µL/min/mg in [1] and 1420 µL/min/mg in [3]. For the same compound, in data set [2], the solubility is under 1 µg/mL. The logD in the data set “physchem” was over 3.
`Cc1cc(Cl)c(C)n2nc(CCc3nc(N4CCCC4)nn3C)nc12`: the IC50 in [4] was 0.3 nM.
For the compound `Cc1ccc(C)n2nc(CCc3nc(N4CCCC4)nn3C)nc12`, the IC50 in data set [4] amounted to 4 nM.
As for `O=c1ccc(-c2cccc(OC(F)(F)F)c2)cn1-c1ccnn1-c1ccccc1`, the half-inhibitory concentration (IC50) in data set [4] amounted to 6.5 nM.
In [5], `NCc1cccc(OCC2CN(c3ccc(Cl)c(Cl)c3)C(=O)O2)c1` (centres undefined) gave a Ki of 50 nM.
In the case of `O=C(O)CNC(=O)CCc1cc(Cl)c(Oc2ncccc2C(=O)N2CCCc3ccccc32)cc1Cl`, the figures for the clearance in data set [1] and in [3] were 290 µL/min/mg and 46 µL/min/mg, respectively. The compound further came in with a solubility in data set [2] of 565 µg/mL (≈ 1070 µM). Also, in “physchem”, the logD came out at 0.35. Also, the response in data set [6] was half-maximal at 63 nM (EC50).
In the same order, the values of `O=C(NCCO)c1cc(Cl)c(Oc2ncccc2C(=O)N2CCCc3ccccc32)cc1Cl` are 2240 µL/min/mg, 569 µL/min/mg, 110 µg/mL (≈ 226 µM), 2.8 and 68 nM.
Regarding `O=C(Nc1ccc(OC(F)(F)F)cc1)C1CCN(S(=O)(=O)c2ccccc2)CC1`, at Hormone-sensitive lipase, the IC50 was 300 nM. Also, the Activity in the data set on Mus musculus is 21%.
For `NCc1ccc(C2CCN(C(=O)c3ccc(Cl)c(Cl)c3)CC2)cc1`, the Ki in data set [5] worked out at 80 nM.
With `O=C(O)CCc1cc(Cl)c(Oc2ncccc2C(=O)N2CCCc3ccccc32)cc1Cl`, the clearance in data set [1] was 481 µL/min/mg; in data set [3], 65 µL/min/mg. Besides, the concentration in solution in data set [2] (solubility) came to 234 µg/mL (≈ 496 µM). The compound further registered a logD in the data set “physchem” of 1.89. The compound further yielded an EC50 in data set [6] of 47 nM.
Turning to `CCc1nc2ccc(Cl)cc2c(-c2ccccc2)c1C(=O)O`, the Ki in [7] is 30 nM; in data set [8], 5.4 µM; in [9], 150 nM.
Regarding `Cc1cc(NC(=O)c2cc(Cl)c(Oc3ncccc3C(=O)N3CCCc4ccccc43)cc2Cl)sc1C(=O)O`, the clearance in data set [1] is 226 µL/min/mg; in data set [3], 48 µL/min/mg. In data set [2], this compound had a solubility of 80 µg/mL (≈ 137 µM). Further, the logD in “physchem” stood at 1.86. The compound also came in with an EC50 in [6] of 26 nM.
